Laboratory results published in ChEMBL document CHEMBL5674860, “Optimized Dual-Glo Assay to identify co-culture-induced drug vulnerabilities in 3D CRC models” (2024).

Key:
Assay type in all cases: functional, Homo sapiens
Parameters in all cases: dose or concentration left out as unconfirmed
Colon cancer organoid [1] = test: Optimized Dual-Glo assay to identify co-culture induced drug vulnerabilities using donated chemical probes and chemogenomics kinase set in O06 CRC organoid and F06 CAF mono and co-culture. […] Cell viability is reported both mono and co-culture models.
Colon cancer organoid [2] = test: Optimized Dual-Glo assay to identify co-culture induced drug vulnerabilities using donated chemical probes and chemogenomics kinase set in O14 CRC organoid and F14 CAF mono and co-culture. […] Cell viability is reported both mono and co-culture models.
Colon cancer organoid [3] = test: Optimized Dual-Glo assay to identify co-culture induced drug vulnerabilities using donated chemical probes and chemogenomics kinase set in O20 CRC organoid and F20 CAF mono and co-culture. […] Cell viability is reported both mono and co-culture models.
[4] = Culture type Co-Culture, Transduced with Lucferase2-P2A-EGFP lentivirus
[5] = Culture type Co-Culture, Transduced with Renilla-dsRed lentivirus
[6] = Culture type Mono-Culture, Transduced with Lucferase2-P2A-EGFP lentivirus
[7] = Culture type Mono-Culture, Transduced with Renilla-dsRed lentivirus

Compound	Cell Viability (Colon cancer organoid [1]; [4])	Cell Viability (Colon cancer organoid [1]; [5])	Cell Viability (Colon cancer organoid [1]; [6])	Cell Viability (Colon cancer organoid [1]; [7])	Cell Viability (Colon cancer organoid [2]; [4])	Cell Viability (Colon cancer organoid [2]; [5])	Cell Viability (Colon cancer organoid [2]; [6])	Cell Viability (Colon cancer organoid [2]; [7])	Cell Viability (Colon cancer organoid [3]; [4])	Cell Viability (Colon cancer organoid [3]; [5])	Cell Viability (Colon cancer organoid [3]; [6])	Cell Viability (Colon cancer organoid [3]; [7])
CC(=O)C1=C(C)N(c2cccc(C(F)(F)F)c2)C(=O)N[C@H]1c1ccc(C#N)nc1 [BAY-677]	113.366%	134.225%	107.227%	105.031%	86.1981%	131.912%	107.006%	91.8517%	134.265%	107.791%	113.459%	115.06%
CC(=O)C1=C(C)N(c2cccc(C(F)(F)F)c2)C(=O)N[C@@H]1c1ccc(C#N)nc1 [BAY-678]	128.432%	162.784%	110.704%	89.9312%	126.5%	123.101%	84.3173%	104.156%	140.099%	133.591%	110.356%	85.3396%
Cc1nc(C2CCN(C(=O)c3ccc(OC(F)(F)F)cc3N)CC2)c2ncc(N3CCN(C)CC3)cc2n1 [BAY-693]	114.208%	166.908%	75.386%	110.093%	86.7565%	92.2226%	129.525%	92.5719%	93.857%	129.276%	111.777%	88.9169%
O=C(O)[C@@H]1[C@@H](Cn2nnc3ccccc3c2=O)CC[C@H]1C(=O)c1ccc(OCCC2CCOCC2)cc1 [BAY-694]	117.739%	144.793%	97.4704%	83.1858%	106.85%	112.908%	118.458%	100.512%	92.0939%	91.7477%	167.035%	108.76%
O=C(NCc1ncc(C(F)(F)F)cc1Cl)c1ccc2c(c1)C1(CCS(=O)(=O)CC1)[C@@H](C1CC1)N2S(=O)(=O)c1ccc(F)cc1 [BAY-786]	112.409%	138.316%	97.377%	88.5192%	75.9207%	99.8085%	94.4221%	104.267%	102.274%	106.984%	104.026%	100.592%
Cc1c(NC(=O)c2cc(C(N)=O)nc3cc(F)ccc23)c(C(F)(F)F)nn1Cc1ccc(C#N)cc1 [BAY-876]	9.2808%	424.118%	4.84%	74.218%	22.1239%	120.557%	31.4127%	63.4994%	13.842%	190.785%	15.2674%	77.5911%
CN1CCN(c2cnc3c(C4CCN(C(=O)c5ccc(OC(F)(F)F)cc5N)CC4)ncnc3c2)CC1 [BAY-885]	128.922%	132.533%	82.0167%	90.7895%	92.1967%	106.052%	52.9657%	104.304%	78.3205%	141.163%	69.7079%	80.8249%
O=C(Nc1cnc(Oc2ccc(F)cc2)nc1)N1CCc2ncccc2[C@@H]1c1ccc(F)cc1 [BAY-899]	92.2798%	100.101%	137.923%	100.535%	76.8335%	114.239%	91.8718%	105.629%	151.718%	104.61%	76.6403%	85.9791%
CC1=C(C#N)C(c2ccc3c(c2)c(NC(=O)c2ccccc2C)nn3C)C(C#N)=C(C)N1 [BAY-974]	97.6295%	94.9804%	90.396%	95.4639%	102.224%	90.7163%	99.5288%	100.218%	105.235%	128.576%	108.1%	107.642%
